Test results: patent US20190343801A1, “COMPOSITIONS AND METHODS FOR CONTROLLING NATURAL KILLER CELL ACTIVATION AND FUNCTION” (BAR ILAN UNIVERSITY, priority 2017, published 2019)
Counter-ions that a name gives are not always drawn.

Test system: YTS F-tractin GFP cells
Test: NKIS area of YTS F-tractin GFP cells spread over antibody-coated coverslips
Assay type: cell-based
Conditions: 25 μM Y-27 or 1 μM JAS; anti-CD28 or anti-KIR1
Description: FIGS. 5E-5H. show analyses of NKIS area and ARF in the activating vs. inhibitory NKIS in the presence of Y-27632 (Y-27) inhibitor of myosin light chain (MLC) phosphorylation and/or JAS. In FIG. 5E is live cell imaging of YTS-2DL1 cells expressing F-tractin GFP treated with 25 μM Y-27 (anti-CD28: n=6 movies; anti-KIR1: n=6 movies). […] In FIG. 5F are YTS F-tractin GFP cells treated with 25 μM Y-27 or left untreated. Cells were seeded over coverslips pre-coated with anti-CD28 or anti-KIR1 and allowed to spread at 37° C. for 10 min before fixation, and 1 μM JAS was added 5 min after initial spreading. NKIS area was determined using ImageJ. […]
Chambered cover glasses (LabTek) were cleaned by treatment with 1 M HCl, 70% ethanol for 30 min and dried at 60° C. for 30 min. […] The NK and target cells in the conjugates were distinguished based on fluorescence signal, in which the target cells expressed mCherry and the NK cells expressed various YFP, CFP or GFP tagged proteins. […] The relative fluorescence intensity of the proteins at the synapse was determined by measuring the ratio between fluorescence intensity at the NKIS relative to a non-NKIS site using ImageJ. […]

## C[C@@H](N)C1CCC(C(=O)Nc2ccncc2)CC1 (stereo partly drawn) [Formula Y-27, 4-[(1R)-1-aminoethyl]-N N-4-pyridinyl-trans-cyclohexanecarboxamide, dihydrochloride]
  NKIS area / NK contact area: significantly enlarged NKIS area
